These results are taken from patent US9409892B2, “4-hydroxy-isoquinoline compounds as HIF hydroxylase inhibitors” (FIBROGEN, INC., priority 2012, dated 2016).

Test [1] has as its target PHD1 (EGLN2) (Homo sapiens (Human), UniProt Q96KS0). The test can be described thus: HIF-PH assay (14CO2 capture), PHD1 enzyme inhibition. Type of test: biochemical. To be noted: Table 1; for IC50: individual measurement, read-out: IC50 (μM) PHD1; for PHD2/PHD1: ratio of the IC50 of the compound for each enzyme.
For test [2], the target named is PHD2 (EGLN1) (Homo sapiens (Human), UniProt Q9GZT9). The test can be described thus: HIF-PH assay (14CO2 capture), PHD2 enzyme inhibition. Type of test: biochemical. To be noted: Table 1; individual measurement; read-out: IC50 (μM) PHD2.
Chain of PHD2 (EGLN1) (Q9GZT9 whole entry): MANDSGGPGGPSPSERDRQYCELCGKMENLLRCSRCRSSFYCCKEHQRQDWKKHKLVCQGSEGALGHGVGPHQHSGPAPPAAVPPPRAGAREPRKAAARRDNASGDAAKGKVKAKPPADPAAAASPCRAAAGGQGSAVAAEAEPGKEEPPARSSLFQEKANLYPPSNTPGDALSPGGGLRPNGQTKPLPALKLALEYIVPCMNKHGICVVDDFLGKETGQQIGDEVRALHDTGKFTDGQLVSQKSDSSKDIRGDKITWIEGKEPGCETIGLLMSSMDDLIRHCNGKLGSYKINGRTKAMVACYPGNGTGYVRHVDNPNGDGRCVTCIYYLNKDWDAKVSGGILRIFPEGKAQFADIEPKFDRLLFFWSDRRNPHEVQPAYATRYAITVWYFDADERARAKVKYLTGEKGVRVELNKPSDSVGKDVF

Chain of PHD1 (EGLN2) (Q96KS0 whole entry): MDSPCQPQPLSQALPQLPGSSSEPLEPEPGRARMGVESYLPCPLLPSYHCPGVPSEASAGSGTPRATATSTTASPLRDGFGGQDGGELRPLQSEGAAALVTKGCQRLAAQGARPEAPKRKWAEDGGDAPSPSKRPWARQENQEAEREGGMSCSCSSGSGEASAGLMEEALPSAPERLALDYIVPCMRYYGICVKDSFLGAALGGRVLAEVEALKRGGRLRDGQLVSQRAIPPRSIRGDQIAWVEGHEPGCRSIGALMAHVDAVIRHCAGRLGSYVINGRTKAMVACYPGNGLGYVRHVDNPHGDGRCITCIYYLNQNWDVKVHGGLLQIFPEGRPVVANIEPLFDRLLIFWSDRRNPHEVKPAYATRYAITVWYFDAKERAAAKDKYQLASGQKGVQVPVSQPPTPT

Consider `C[C@@H](NC(=O)c1nc(C#N)c2cc(Oc3ccccc3)ccc2c1O)[C@@H](C)C(=O)O` [Compound 69, (2R,3R)-3-[(1-Cyano-4-hydroxy-7-phenoxy-isoquinoline-3-carbonyl)-amino]-2-methyl-butyric acid], for which the figures for the IC50 in test [1] and in test [2] were 2.43 µM and 64.1 µM, respectively. In test [1], the PHD2/PHD1 amounted to 26.
For `C[C@H](C(=O)O)[C@@H](C)NC(=O)c1nc(C#N)c2cc(Oc3ccccc3)ccc2c1O` [Compound 70, (2S,3R)-3-[(1-Cyano-4-hydroxy-7-phenoxy-isoquinoline-3-carbonyl)-amino]-2-methyl-butyric acid], in that order: 1.86 µM, 65.8 µM and 35.
Consider `C[C@H](NC(=O)c1nc(C#N)c2cc(Oc3ccccc3)ccc2c1O)[C@H](C)C(=O)O` [Compound 71, (2S,3S)-3-[(1-Cyano-4-hydroxy-7-phenoxy-isoquinoline-3-carbonyl)-amino]-2-methyl-butyric acid], for which the IC50 – broadly, the concentration needed to halve the response being measured – in test [1] came out at 2.77 µM; in test [2] it was 107 µM. For the same compound, in test [1], the PHD2/PHD1 is on record as 39.
In the same order, the values of `C[C@H](NC(=O)c1nc(C#N)c2cc(Oc3ccccc3)ccc2c1O)[C@@H](C)C(=O)O` [Compound 72, (2R,3S)-3-[(1-Cyano-4-hydroxy-7-phenoxy-isoquinoline-3-carbonyl)-amino]-2-methyl-butyric acid] are 11.8 µM, 200 µM and 17.
`C[C@](O)(CNC(=O)c1nc(C#N)c2cc(Oc3ccccc3)ccc2c1O)C(=O)O` [Compound 73, (S)-3-(1-Cyano-4-hydroxy-7-phenoxyisoquinoline-3-carboxamido)-2-hydroxy-2-methylpropanoic acid]: in test [1], the IC50 stood at 0.74 µM and the PHD2/PHD1 was determined as 5. The IC50 in test [2] was determined as 3.38 µM.
For `N#Cc1nc(C(=O)N[C@H](Cc2ccccc2)[C@H](O)C(=O)O)c(O)c2ccc(Oc3ccccc3)cc12` [Compound 74, (2S,3R)-3-(1-Cyano-4-hydroxy-7-phenoxyisoquinoline-3-carboxamido)-2-hydroxy-4-phenylbutanoic acid], in that order: 1.55 µM, 5 and 7.64 µM.
In the same order, the values of `N#Cc1nc(C(=O)N[C@H](Cc2ccccc2)[C@@H](O)C(=O)O)c(O)c2ccc(Oc3ccccc3)cc12` [Compound 75, (2R,3R)-3-(1-Cyano-4-hydroxy-7-phenoxyisoquinoline-3-carboxamido)-2-hydroxy-4-phenylbutanoic acid] are 1.17 µM, 16 and 18.9 µM.
For `N#Cc1nc(C(=O)NCC(O)C(=O)O)c(O)c2ccc(Oc3ccccc3)cc12` (stereo not drawn) [Compound 76, 3-[(1-Cyano-4-hydroxy-7-phenoxy-isoquinoline-3-carbonyl)-amino]-2-hydroxy-propionic acid], in test [1], the 50% inhibitory concentration (IC50) was found to be 0.16 µM and the PHD2/PHD1 is 18. Further, the IC50 in test [2] is 2.86 µM.
Turning to `CC(C)(CNC(=O)c1nc(C#N)c2cc(Oc3ccccc3)ccc2c1O)C(=O)O` [Compound 77, 3-[(1-Cyano-4-hydroxy-7-phenoxy-isoquinoline-3-carbonyl)-amino]-2,2-dimethyl-propionic acid], the IC50 in test [1] was determined as 0.41 µM; in test [2], 9.12 µM. Further, the PHD2/PHD1 in test [1] was found to be 22.
For `C[C@@H](CC(=O)O)NC(=O)c1nc(C#N)c2cc(Oc3ccccc3)ccc2c1O` [Compound 78, 3-(S)-[(1-Cyano-4-hydroxy-7-phenoxy-isoquinoline-3-carbonyl)-amino]-butyric acid], in that order: 3.27 µM, 96.8 µM and 30.
With `N#Cc1nc(C(=O)NC[C@H](O)C(=O)O)c(O)c2ccc(Oc3ccccc3)cc12` [Compound 79, 3-[(1-Cyano-4-hydroxy-7-phenoxy-isoquinoline-3-carbonyl)-amino]-2-(S)-hydroxy-propionic acid], in test [1], the IC50 is 0.11 µM and the PHD2/PHD1 is 15. The IC50 in test [2] came to 1.69 µM.
`N#Cc1nc(C(=O)NCCCC(=O)O)c(O)c2ccc(Oc3ccccc3)cc12` [Compound 80, 4-[(1-Cyano-4-hydroxy-7-phenoxy-isoquinoline-3-carbonyl)-amino]-butyric acid]: in test [1], the IC50 amounted to 0.14 µM and the PHD2/PHD1 was found to be 5. For the same compound, in test [2], the 50% inhibitory concentration (IC50) was 0.71 µM.
For `N#Cc1nc(C(=O)NCCCCC(=O)O)c(O)c2ccc(Oc3ccccc3)cc12` [Compound 81, 5-[(1-Cyano-4-hydroxy-7-phenoxy-isoquinoline-3-carbonyl)-amino]-pentanoic acid], in that order: 0.42 µM, 12 and 4.95 µM.
For `N#Cc1nc(C(=O)NCC[C@H](O)C(=O)O)c(O)c2ccc(Oc3ccccc3)cc12` [Compound 83, 4-[(1-Cyano-4-hydroxy-7-phenoxy-isoquinoline-3-carbonyl)-amino]-2-(S)-hydroxy-butyric acid], in test [1], the IC50 was determined as 0.24 µM and the PHD2/PHD1 stood at 12. Besides, the half-maximal inhibitory concentration (IC50) in test [2] came out at 2.75 µM.
For `CC(C)(CCNC(=O)c1nc(C#N)c2cc(Oc3ccccc3)ccc2c1O)C(=O)O` [Compound 84, 4-[(1-Cyano-4-hydroxy-7-phenoxy-isoquinoline-3-carbonyl)-amino]-2,2-dimethyl-butyric acid], in test [1], the IC50 worked out at 0.34 µM and the PHD2/PHD1 was 6. Further, the IC50 in test [2] is 2.11 µM.
In the same order, the values of `CC(C)(C)OC(=O)N[C@@H](CNC(=O)c1nc(C#N)c2cc(Oc3ccccc3)ccc2c1O)C(=O)O` [Compound 85, 2-(S)-tert-Butoxycarbonylamino-3-[(1-cyano-4-hydroxy-7-phenoxy-isoquinoline-3-carbonyl)-amino]-propionic acid] are 19.1 µM, 6 and 112 µM.
For `N#Cc1nc(C(=O)NC[C@H](N)C(=O)O)c(O)c2ccc(Oc3ccccc3)cc12` [Compound 86, 2-(S)-Amino-3-[(1-cyano-4-hydroxy-7-phenoxy-isoquinoline-3-carbonyl)-amino]-propionic acid], in that order: 2.51 µM, 21 and 51.9 µM.
For `N#Cc1nc(C(=O)NC[C@H](NC(=O)OCc2ccccc2)C(=O)O)c(O)c2ccc(Oc3ccccc3)cc12` [Compound 87, 2-(S)-Benzyloxycarbonylamino-3-[(1-cyano-4-hydroxy-7-phenoxy-isoquinoline-3-carbonyl)-amino]-propionic acid], in that order: 3.56 µM, 8 and 27.5 µM.
Turning to `N#Cc1nc(C(=O)N[C@H]2CC[C@H](C(=O)O)CC2)c(O)c2ccc(Oc3ccccc3)cc12` [Compound 88, trans-4-[(1-Cyano-4-hydroxy-7-phenoxy-isoquinoline-3-carbonyl)-amino]-cyclohexanecarboxylic acid], in test [1], the IC50 stood at 14.1 µM and the PHD2/PHD1 came to 7. For the same compound, the IC50 in test [2] is 93.3 µM.
In the same order, the values of `CC(C)(CNC(=O)c1nc(C#N)c2cc(Oc3ccccc3)ccc2c1O)CC(=O)O` [Compound 89, 4-[(1-Cyano-4-hydroxy-7-phenoxy-isoquinoline-3-carbonyl)-amino]-3,3-dimethyl-butyric acid] are 2.86 µM, 5 and 13.6 µM.
`N#Cc1nc(C(=O)NC2(CC(=O)O)CCCCC2)c(O)c2ccc(Oc3ccccc3)cc12` [Compound 90, {1-[(1-Cyano-4-hydroxy-7-phenoxy-isoquinoline-3-carbonyl)-amino]-cyclohexyl}-acetic acid]: the values for the IC50 in test [1] and in test [2] were 7.32 µM and 56.3 µM, respectively. The PHD2/PHD1 in test [1] worked out at 8.
For `N#Cc1nc(C(=O)NC(CC(=O)O)c2ccccc2)c(O)c2ccc(Oc3ccccc3)cc12` (stereo not drawn) [Compound 91, 3-[(1-Cyano-4-hydroxy-7-phenoxy-isoquinoline-3-carbonyl)-amino]-3-phenyl-propionic acid], in test [1], the IC50 amounted to 1.91 µM and the PHD2/PHD1 stood at 6. Besides, the 50% inhibitory concentration (IC50) in test [2] is 11.3 µM.
Turning to `C[C@H](CNC(=O)c1nc(C#N)c2cc(Oc3ccccc3)ccc2c1O)C(=O)O` [Compound 92, 3-[(1-Cyano-4-hydroxy-7-phenoxy-isoquinoline-3-carbonyl)-amino]-2-(R)-methyl-propionic acid], the results for the 50% inhibitory concentration (IC50) in test [1] and in test [2] were 0.28 µM and 3.88 µM, respectively. The PHD2/PHD1 in test [1] is 14.
For `C[C@@H](CNC(=O)c1nc(C#N)c2cc(Oc3ccccc3)ccc2c1O)C(=O)O` [Compound 93, 3-[(1-Cyano-4-hydroxy-7-phenoxy-isoquinoline-3-carbonyl)-amino]-2-(S)-methyl-propionic acid], in that order: 0.16 µM, 2.4 µM and 15.
On to `CO[C@@H](CCNC(=O)c1nc(C#N)c2cc(Oc3ccccc3)ccc2c1O)C(=O)O` [Compound 94, 4-[(1-Cyano-4-hydroxy-7-phenoxy-isoquinoline-3-carbonyl)-amino]-2-(S)-methoxy-butyric acid], for which, in test [1], the IC50 was determined as 0.31 µM and the PHD2/PHD1 amounted to 7. Besides, the IC50 in test [2] stood at 2.18 µM.
In the same order, the values of `CC(C)(CCCNC(=O)c1nc(C#N)c2cc(Oc3ccccc3)ccc2c1O)C(=O)O` [Compound 95, 5-[(1-Cyano-4-hydroxy-7-phenoxy-isoquinoline-3-carbonyl)-amino]-2,2-dimethyl-pentanoic acid] are 0.74 µM, 5 and 3.5 µM.
In the same order, the values of `CC(C)(C)OC(=O)N1CCC(CC(=O)O)(NC(=O)c2nc(C#N)c3cc(Oc4ccccc4)ccc3c2O)CC1` [Compound 96, 4-Carboxymethyl-4-[(1-cyano-4-hydroxy-7-phenoxy-isoquinoline-3-carbonyl)-amino]-piperidine-1-carboxylic acid tert-butyl ester] are 11.3 µM, 14 and 158 µM.
